Assay results reported in ChEMBL document CHEMBL4304785, “Recent advances of analogues of curcumin for treatment of cancer” (Eur J Med Chem, 2019).

Columns and labels:
SK-OV-3 = assay: Cell cycle arrest in human SKOV3 cells assessed as accumulation at G1 phase at 15 umol/L after 24 hrs by propidium iodide staining-based assay (reference value: 58.1%); type: functional
MDA-MB-231 = assay: Increase in MMP3 level in human MDA-MB-231 cells after 24 hrs by ELISA; type: functional, cell-based; conditions: MDA-MB-231, 24 h
HT-1080 [1] = assay: Decrease in UPA expression in human HT1080 cells; type: functional, cell-based
HT-1080 [2] = assay: Induction of DNA damage in human HT1080 cells assessed as formation of DNA breaks at 50 ug/ml by comet assay relative to control; type: functional
ASPC1 = assay: Antitumor activity against human Aspc-1 cells xenografted in athymic nude mouse assessed as reduction in tumor volume at 5 mg/kg after 35 days relative to control; type: functional; conditions: ASPC1, 840 h
K562 = assay: Induction of apoptosis in human K562; type: functional, cell-based
Tubulin = assay: Inhibition of tubulin polymerization (unknown origin); type: protein-complex assay, Homo sapiens
[3] = Inhibition of cell invasion in human […] cells at 4 nmol/L after 24 hrs by crystal violet staining based transwell assay relative to control; type: functional
HT-144 [4] = assay: Cytotoxicity against human HT144 cells after 24 hrs by MTT assay; type: functional, cell-based; conditions: HT-144, 24 h
HT-144 [5] = assay: Cytotoxicity against human HT144 cells after 48 hrs by MTT assay; type: functional, cell-based; conditions: HT-144, 48 h
MIA PaCa-2 = assay: Cytotoxicity against human MIAPaCa2 cells after 48 hrs by MTT assay; type: functional, cell-based; conditions: MIA PaCa-2, 48 h
NCI-H460 = assay: Cytotoxicity against human H460 cells after 48 hrs by MTT assay; type: functional, cell-based; conditions: NCI-H460, 48 h
[6] = Cytotoxicity against human WRO cells at 10 uM after 72 hrs by MTS assay relative to control; type: functional
[7] = Cytotoxicity against human WRO cells after 72 hrs in presence of curcumin by MTS assay relative to control; type: functional
MCF7R = assay: Cytotoxicity against human MCF7/R cells at 5 umol/L after 72 hrs by MTS assay relative to control; type: functional
[8] = Cytotoxicity against human WRO cells at 5 umol/L after 72 hrs by MTS assay relative to control; type: functional
EL4 = assay: Induction of apoptosis in mouse EL4 cells at 50 umol/L after 72 hrs relative to control; type: functional
HeLa = assay: Cytotoxicity against human HeLa cells; type: functional, cell-based
MCF7 [9] = assay: Cytotoxicity against human MCF7 cells; type: functional, cell-based
[10] = Cytotoxicity against […] cells by MTT assay; type: functional, cell-based
HT-29 [11] = assay: Cytotoxicity against human HT-29 cells after 4 hrs by MTT assay; type: functional, cell-based; conditions: HT-29, 4 h
SW480 = assay: Cytotoxicity against human SW480 cells after 4 hrs by MTT assay; type: functional, cell-based; conditions: SW480, 4 h
KM12 = assay: Cytotoxicity against human KM12 cells after 4 hrs by MTT assay; type: functional, cell-based; conditions: KM12, 4 h
[12] = Cytotoxicity against human SW116 cells after 4 hrs by MTT assay; type: functional, cell-based; conditions: SW116, 4 h
WiDr = assay: Cytotoxicity against human WiDr cells after 4 hrs by MTT assay; type: functional, cell-based
Colon 26 = assay: Cytotoxicity against mouse Colon 26 cells after 4 hrs by MTT assay; type: functional, cell-based; conditions: Colon 26, 4 h
DLD-1 = assay: Cytotoxicity against human DLD1 cells; type: functional, cell-based
HT-29 [13] = assay: Cytotoxicity against human HT-29 cells; type: functional, cell-based
CCD-841CoN = assay: Cytotoxicity against human CRL1790 cells; type: functional, cell-based
HaCaT = assay: Cytotoxicity against human HaCaT cells; type: functional, cell-based
BT-474 = assay: Cytotoxicity against human BT474 cells; type: functional, cell-based
T47D = assay: Cytotoxicity against human T47D cells; type: functional, cell-based
Hep 3B2 = assay: Cytotoxicity against human Hep3B cells; type: functional, cell-based
[14] = Cytotoxicity against human HPL1D cells; type: functional, cell-based
MCF7 [15] = assay: Anti-invasive activity against human MCF7 cells at 100 umol/L after 12 hrs by giemsa staining based light microscopic analysis relative to control; type: functional
TT = assay: Cytotoxicity against human TT cells by trypan blue dye-based assay; type: functional, cell-based
[16] = molecular target: Fibroblast growth factor receptor 1 (Homo sapiens) (UniProt P11362); assay: Inhibition of FGFR1 (unknown origin) relative to control; conditions: concentration not given here
Sequence of Fibroblast growth factor receptor 1 (Homo sapiens) (P11362 22-822 limits assumed): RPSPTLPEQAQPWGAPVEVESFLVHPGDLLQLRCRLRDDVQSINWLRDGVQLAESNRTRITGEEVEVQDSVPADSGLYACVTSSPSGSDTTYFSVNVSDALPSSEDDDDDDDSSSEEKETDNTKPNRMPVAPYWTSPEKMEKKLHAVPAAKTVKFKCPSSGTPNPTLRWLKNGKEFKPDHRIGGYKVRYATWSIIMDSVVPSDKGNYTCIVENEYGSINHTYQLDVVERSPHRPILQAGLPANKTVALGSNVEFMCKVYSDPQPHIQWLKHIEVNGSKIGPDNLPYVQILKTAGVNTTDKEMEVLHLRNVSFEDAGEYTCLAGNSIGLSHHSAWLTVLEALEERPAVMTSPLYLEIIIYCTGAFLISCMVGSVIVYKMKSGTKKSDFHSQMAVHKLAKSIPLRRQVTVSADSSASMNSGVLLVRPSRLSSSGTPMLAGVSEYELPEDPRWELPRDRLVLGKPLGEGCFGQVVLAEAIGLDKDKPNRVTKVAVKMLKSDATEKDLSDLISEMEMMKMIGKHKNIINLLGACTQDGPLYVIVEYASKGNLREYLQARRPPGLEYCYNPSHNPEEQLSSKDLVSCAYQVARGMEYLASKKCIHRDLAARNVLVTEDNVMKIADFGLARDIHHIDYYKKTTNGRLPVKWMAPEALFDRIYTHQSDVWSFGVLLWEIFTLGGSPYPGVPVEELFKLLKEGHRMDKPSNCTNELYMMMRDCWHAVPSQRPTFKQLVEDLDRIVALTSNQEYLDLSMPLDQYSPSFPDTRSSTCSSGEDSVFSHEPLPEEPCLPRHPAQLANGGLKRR

[17] = molecular target: Fibroblast growth factor receptor 2 (Homo sapiens) (UniProt P21802); assay: Inhibition of FGFR2 (unknown origin) relative to control; conditions: concentration not given here
Sequence of Fibroblast growth factor receptor 2 (Homo sapiens) (P21802 22-821 limits assumed): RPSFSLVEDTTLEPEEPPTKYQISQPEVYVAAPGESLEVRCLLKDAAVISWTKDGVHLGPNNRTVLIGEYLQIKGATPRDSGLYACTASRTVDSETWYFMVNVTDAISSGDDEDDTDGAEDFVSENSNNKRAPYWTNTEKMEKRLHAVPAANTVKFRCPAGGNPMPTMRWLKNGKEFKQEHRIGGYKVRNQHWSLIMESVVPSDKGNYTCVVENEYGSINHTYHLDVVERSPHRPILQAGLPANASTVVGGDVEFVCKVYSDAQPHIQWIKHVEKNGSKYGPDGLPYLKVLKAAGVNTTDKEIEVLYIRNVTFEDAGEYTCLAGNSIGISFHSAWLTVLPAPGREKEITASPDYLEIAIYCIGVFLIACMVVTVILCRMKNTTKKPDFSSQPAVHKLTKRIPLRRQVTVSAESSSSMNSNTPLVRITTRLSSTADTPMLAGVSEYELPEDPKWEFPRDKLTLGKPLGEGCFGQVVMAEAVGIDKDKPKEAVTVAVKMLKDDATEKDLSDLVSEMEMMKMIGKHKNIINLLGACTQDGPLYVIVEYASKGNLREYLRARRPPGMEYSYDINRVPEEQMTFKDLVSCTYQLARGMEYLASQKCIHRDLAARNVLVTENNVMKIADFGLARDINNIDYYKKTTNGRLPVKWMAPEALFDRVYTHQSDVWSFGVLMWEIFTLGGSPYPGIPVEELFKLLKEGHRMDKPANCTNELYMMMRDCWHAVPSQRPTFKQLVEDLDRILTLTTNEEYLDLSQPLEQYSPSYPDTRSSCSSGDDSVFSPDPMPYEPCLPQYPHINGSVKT

DU-145 [18] = assay: Cytotoxicity against human DU145 cells; type: functional, cell-based
PC-3 = assay: Cytotoxicity against human PC3 cells; type: functional, cell-based
DU-145 [19] = assay: Potentiation of PTX-induced anticancer activity in human DU145 cells assessed as reduction in PTX IC50 (reference value: 13.5 nmol/L); type: functional, cell-based

`O=C(/C=C/c1ccc(O)cc1)CC(=O)/C=C/c1ccc(O)cc1` [BISDEMETHOXYCURCUMIN] gave an Activity (SK-OV-3) of 79.7%, an IC50 (MDA-MB-231) of 11 µM and an IC50 (HT-1080 [1]) of 7 µM.
For `O=C(O)/C=C/c1ccc(O)c(O)c1` [CAFFEIC ACID], the Activity (HT-1080 [2]) was 85%.
In the case of `COc1cc(CNC(=O)CCCC/C=C/C(C)C)ccc1O` [CAPSAICIN], the inhibition in vivo at 5 mg/kg (ASPC1) is reported as 73%.
In the case of `O=C(/C=C/c1ccccc1)c1ccccc1` [CHALCONE], the IC50 (K562) is reported as 4.3 µM and the IC50 (Tubulin) is reported as 620 µM.
Work on `O=C(O)/C=C/c1ccccc1` [CINNAMIC ACID] yielded an inhibition at 0.004 µM [3] of 60%, an IC50 (HT-144 [4]) of 2.4 µM and an IC50 (HT-144 [5]) of 1.07 µM. The IC50 (MIA PaCa-2) was 1.33 µM and the IC50 (NCI-H460) was 2.1 µM.
With `COc1cc(/C=C/c2cc(/C=C/c3ccc(O)c(OC)c3)[nH]n2)ccc1O` [CURCUMIN PYRAZOLE] the inhibition at 10 µM [6] was 48.2%, the “inhibition (INH)” value [7] was 41% and the inhibition at 5 µM (MCF7R) was 52.8%. For the same compound, the inhibition at 5 µM [8] was 48.9%.
With `COc1cc(/C=C/C(=O)CC(=O)/C=C/c2ccc(O)c(OC)c2)ccc1O` [CURCUMIN] the IC50 (HT-1080 [1]) was 10 µM, the Activity (EL4) was 95% and the IC50 (HeLa) was 8.2 µM. The IC50 (MCF7 [9]) was 19.9 µM, the IC50 [10] was 8.5 µM and the IC50 (HT-29 [11]) was 20.7 µM. For the same compound, the IC50 (SW480) was 17.9 µM, the IC50 (KM12) was 16 µM and the IC50 [12] was 27.5 µM. The IC50 (WiDr) was 26.8 µM, the IC50 (Colon 26) was 30.3 µM and the IC50 (DLD-1) was 146 µM. For the same compound, the IC50 (HT-29 [13]) was 132 µM, the IC50 (CCD-841CoN) was 105 µM and the IC50 (HaCaT) was 13 µM. It also gave an IC50 (BT-474) of 11 µM, an IC50 (T47D) of 11 µM and an IC50 (Hep 3B2) of 10 µM. The IC50 [14] was 16 µM.
Compound `O=C(CC(=O)c1ccccc1)c1ccccc1` [DIBENZOYLMETHANE] has an Activity (MCF7 [15]) of 84%.
For `COc1cc(/C=C/C(=O)O)ccc1O` [FERULATE], the IC50 (TT) was 150 µM, the inhibition [16] was 92% and the inhibition [17] was 64%.
For `C/C1=C\CC(C)(C)/C=C/C(=O)/C(C)=C/CC1` [ZERUMBONE], the IC50 (DU-145 [18]) was 6.9 µM, the IC50 (PC-3) was 9.1 µM and the IC50 (DU-145 [19]) was 0.0055 µM.
